Where two headings read alike, the source gives them in different places.
Experiments:
β2 adrenergic receptor = β2 adrenergic receptor (Homo sapiens (Human), UniProt P07550); assay: cAMP Gs dynamic HTRF assay, β2 expressing CHO cells; assay type: cell-based
Procedure, shortened: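 Intracellular cAMP quantified by Eu-donor/d2-acceptor HTRF after 30 min compound exposure at 37° C in stimulation buffer with IBMX. Concentrations ran 10 μM top, 5-fold steps, 10 points. Cell lines: 1321N1 astrocytoma and CHO expressing β1 or β2; EC50 via four-parameter fit, relative efficacy against isoproterenol.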

[1] = Rat CNS exposure measurement (plasma, CSF, brain); assay type: in vivo, male SD rats; conditions: male, SD
[2] = Brain tissue binding, equilibrium dialysis (rat); assay type: in vitro ADME
Description: Thawing of the frozen brain tissue homogenate (stored at −80° C.). Frozen brain tissue homogenate was thawed immediately in a room temperature bath. Note: Only use brain tissue homogenate that has been thawed no more than once.
Preparation of working solutions. The working solutions of test compound and control compound propranolol were prepared in DMSO at the concentration of 200 μM. And then 4 μL of working solution was removed to mix with 796 μL of rat brain tissue homogenate to achieve a final concentration of 1 μM (0.5% DMSO). Brain tissue homogenate samples were vortexed thoroughly.
Preparation of dialysis membranes. The dialysis membranes were soaked in ultrapure water for 60 minutes to separate strips, then in 20% ethanol for 20 minutes, finally in dialysis buffer for 20 minutes.
Procedure for equilibrium dialysis. The dialysis apparatus was assembled according to the manufacturer's instruction. Each cell was filled with 150 μL of brain tissue homogenate sample and dialyzed against equal volume of dialysis buffer (PBS). The assay was performed in duplicate. The dialysis plate was sealed and incubated in an incubator at 37° C. with 5% CO2 at approximately 100 rpm for 6 hours. At the end of dialysis, seal was removed and 50 μL of samples from both buffer and brain tissue homogenate chambers were transferred into separate tubes in plate.
Procedure for sample analysis. 50 μL of brain tissue homogenate was added to each buffer samples and an equal volume of PBS was supplemented to the collected brain tissue homogenate sample. 400 μL of room temperature quench solution (acetonitrile containing internal standards (IS, 100 nM Alprazolam, 500 nM Labetalol and 2 μM Ketoprofen)) was added to precipitate protein. Samples in plate were vortexed for 5 minutes and centrifuged at 3,220 g for 30 minutes at room temperature. And then 100 μL of the supernatant was transferred to a new 96-well plate with 100 μL water for LC-MS/MS analysis.
Data analysis. All calculations were carried out using Microsoft Excel. […]
Fumeans=unbound fraction measured with brain tissue homogenate […]

[3] = B2-AR, CHO-K cells, read-out: Average EC50 [Receptor subtype: B2-AR, Cell type: CHO-K]

Sequence of β2 adrenergic receptor (P07550 whole entry, species assumed): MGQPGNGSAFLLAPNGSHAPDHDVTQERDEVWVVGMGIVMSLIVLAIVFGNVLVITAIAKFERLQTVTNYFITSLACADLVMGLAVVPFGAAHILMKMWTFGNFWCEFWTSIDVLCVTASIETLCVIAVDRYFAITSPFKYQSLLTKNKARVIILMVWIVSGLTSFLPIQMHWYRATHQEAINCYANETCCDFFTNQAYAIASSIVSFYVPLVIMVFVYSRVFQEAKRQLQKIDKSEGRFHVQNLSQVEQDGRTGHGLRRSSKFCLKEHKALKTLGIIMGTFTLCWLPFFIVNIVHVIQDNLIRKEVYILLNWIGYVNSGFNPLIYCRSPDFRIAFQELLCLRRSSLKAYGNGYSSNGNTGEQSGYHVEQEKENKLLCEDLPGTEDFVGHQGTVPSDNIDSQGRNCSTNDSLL

Compound | EC50 (β2 adrenergic receptor; cAMP HTRF, read-out: β2 EC50) | concentration at 1 h ([1]; CSF, iv, 1 mg/kg, IV 1 mg/kg, read-out: Concentration, CSF) | concentration at 1 h ([1]; brain, iv, 1 mg/kg, IV 1 mg/kg, read-out: Concentration, Brain) | concentration at 1 h ([1]; plasma, iv, 1 mg/kg, IV 1 mg/kg, read-out: Concentration, Plasma) | fraction unbound at 6 h, 1 μM ([2]; rat, brain homogenate) | Average pEC50 [Receptor subtype: B2-AR; Cell type: CHO-K1 (HitHunter)] (β2 adrenergic receptor; B2-AR, CHO-K1 (HitHunter)) | EC50 (β2 adrenergic receptor; [3]) | concentration at 1 h ([1]; CSF, IV 1 mg/kg, read-out: Concentration, CSF) | concentration at 1 h ([1]; CSF, PO 5 mg/kg, read-out: Concentration, CSF) | concentration at 1 h ([1]; brain, IV 1 mg/kg, read-out: Concentration, Brain) | concentration at 1 h ([1]; brain, PO 5 mg/kg, read-out: Concentration, Brain) | concentration at 1 h ([1]; plasma, IV 1 mg/kg, read-out: Concentration, Plasma) | concentration at 1 h ([1]; plasma, PO 5 mg/kg, read-out: Concentration, Plasma) | EC50 (β2 adrenergic receptor; B2-AR, CHO-K1 (HitHunter), read-out: Average pEC50 [Receptor subtype: B2-AR, Cell type: CHO-K1 (HitHunter)] (converted)) | concentration at 1 h ([1]; in vivo, SC 1 mg/kg, read-out: Concentration, Plasma) | concentration at 1 h ([1]; in vivo, sc, 1 mg/kg, SC 1 mg/kg, read-out: Concentration, Brain) | concentration at 1 h ([1]; in vivo, sc, 1 mg/kg, SC 1 mg/kg, read-out: Concentration, CSF) | fraction unbound at 6 h, 1 μM ([2]; 1 μM, rat brain tissue homogenate, dialysis 6 hours, read-out: BTB (rat), percent of unbound fraction)
CC(C)(C)NC[C@H](O)c1cccc(C(F)(F)F)n1 [Compound 03-3] | < 10 nM | 142 ng/mL | 680 ng/g | 199 ng/mL | 0.48 | – | – | – | – | – | – | – | – | – | – | – | – | –
CC(C)(C)NC[C@H](O)c1cccc(C#N)n1 [Compound 03-5, (S)-6-(2-(tert-butylamino)-1-hydroxyethyl)picolinonitrile] | – | – | – | – | 0.95 | B-A | < 10 nM | 113 ng/mL | 242 ng/mL | 267 ng/g | 497 ng/g | 184 ng/mL | 642 ng/mL | – | – | – | – | –
Cc1ncccc1[C@@H](O)CNC(C)(C)C [Compound 03-115] | – | – | – | – | – | – | 10 to 100 nM | – | – | – | – | – | – | 10 to 100 nM | 149 ng/mL | 142 ng/g | 56.2 ng/mL | 1
